{"source": "PubChem BioAssay AID1963432", "about": "(Molecular Pharmacology Branch, DTP, NCI, 2024)", "test_system": "SYO-1 complex spheroid growth, percent test/control", "assay": "Anticancer human tumor SYO-1 cell line growth inhibition [Asc];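 for all read-outs here: compound exposure lasted 7 days after spheroids grew 3 days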;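 for viability, T/C: 100% = DMSO vehicle control viability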", "conditions": "for IC50: curve of first compound; for viability, T/C: stronger effect = lower value", "how_it_was_run": "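Tumor cells were grown as multicellular spheroids with stromal HUVEC and mesenchymal stem cells and treated singly or in combination. Concentrations fell in half-log steps from the clinical Cmax, or from 10 microM where none was known.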", "key": {"[1]": {"conditions": "second compound 0.0316 µM, first compound 0.0316 µM"}, "[2]": {"conditions": "second compound 0.0316 µM, first compound 0.1 µM"}, "[3]": {"conditions": "second compound 0.0316 µM, first compound 0.316 µM"}, "[4]": {"conditions": "second compound 0.0316 µM, first compound 1 µM"}, "[5]": {"conditions": "second compound 0.1 µM, first compound 0.0316 µM"}, "[6]": {"conditions": "second compound 0.1 µM, first compound 0.1 µM"}, "[7]": {"conditions": "second compound 0.1 µM, first compound 0.316 µM"}, "[8]": {"conditions": "second compound 0.1 µM, first compound 1 µM"}, "[9]": {"conditions": "second compound 0.316 µM, first compound 0.0316 µM"}, "[10]": {"conditions": "second compound 0.316 µM, first compound 0.1 µM"}, "[11]": {"conditions": "second compound 0.316 µM, first compound 0.316 µM"}, "[12]": {"conditions": "second compound 0.316 µM, first compound 1 µM"}, "[13]": {"conditions": "second compound 1 µM, first compound 0.0316 µM"}, "[14]": {"conditions": "second compound 1 µM, first compound 0.1 µM"}, "[15]": {"conditions": "second compound 1 µM, first compound 0.316 µM"}, "[16]": {"conditions": "second compound 1 µM, first compound 1 µM"}, "[17]": {"conditions": "second compound 3.16 µM, first compound 0.0316 µM"}, "[18]": {"conditions": "second compound 3.16 µM, first compound 0.1 µM"}, "[19]": {"conditions": "second compound 3.16 µM, first compound 0.316 µM"}, "[20]": {"conditions": "second compound 3.16 µM, first compound 1 µM"}, "[21]": {"conditions": "second compound 10 µM, first compound 0.0316 µM"}, "[22]": {"conditions": "second compound 10 µM, first compound 0.1 µM"}, "[23]": {"conditions": "second compound 10 µM, first compound 0.316 µM"}, "[24]": {"conditions": "second compound 10 µM, first compound 1 µM"}}, "data": [{"smiles": "C#Cc1c(F)ccc2cc(O)cc(-c3ncc4c(N5CC6CCC(C5)N6)nc(OCC56CCCN5CC(F)C6)nc4c3F)c12", "note": "(centres undefined) + Cc1c(S(C)(=O)=O)c(-c2cc(F)cc(N3CCN(c4ccc(NS(=O)(=O)c5ccc(NC(CCN6CCC(C(=O)OCCCP(=O)(O)O)CC6)CSc6ccccc6)c(S(=O)(=O)C(F)(F)F)c5)cc4)CC3)c2)c(-c2ccc(Cl)cc2)n1C(C)C", "values": [{"measurement": "IC50", "setting": "second compound 0.0316 µM", "result": "> 10", "unit": "µM"}, {"measurement": "IC50", "setting": "second compound 0.1 µM", "result": "> 10", "unit": "µM"}, {"measurement": "IC50", "setting": "second compound 0.316 µM", "result": "> 10", "unit": "µM"}, {"measurement": "IC50", "setting": "second compound 1 µM", "result": "> 10", "unit": "µM"}, {"measurement": "IC50", "setting": "second compound 3.16 µM", "result": "> 10", "unit": "µM"}, {"measurement": "IC50", "setting": "second compound 10 µM", "result": "> 10", "unit": "µM"}, {"measurement": "viability, T/C", "setting": "[1]", "result": 93.6, "unit": "%"}, {"measurement": "viability, T/C", "setting": "[2]", "result": 101, "unit": "%"}, {"measurement": "viability, T/C", "setting": "[3]", "result": 89.2, "unit": "%"}, {"measurement": "viability, T/C", "setting": "[4]", "result": 99.9, "unit": "%"}, {"measurement": "viability, T/C", "setting": "second compound 0.0316 µM, first compound 3.16 µM", "result": 102, "unit": "%"}, {"measurement": "viability, T/C", "setting": "second compound 0.0316 µM, first compound 10 µM", "result": 99.3, "unit": "%"}, {"measurement": "viability, T/C", "setting": "[5]", "result": 92.4, "unit": "%"}, {"measurement": "viability, T/C", "setting": "[6]", "result": 92.6, "unit": "%"}, {"measurement": "viability, T/C", "setting": "[7]", "result": 90.6, "unit": "%"}, {"measurement": "viability, T/C", "setting": "[8]", "result": 99.4, "unit": "%"}, {"measurement": "viability, T/C", "setting": "second compound 0.1 µM, first compound 3.16 µM", "result": 101, "unit": "%"}, {"measurement": "viability, T/C", "setting": "second compound 0.1 µM, first compound 10 µM", "result": 90.8, "unit": "%"}, {"measurement": "viability, T/C", "setting": "[9]", "result": 93.8, "unit": "%"}, {"measurement": "viability, T/C", "setting": "[10]", "result": 85.2, "unit": "%"}, {"measurement": "viability, T/C", "setting": "[11]", "result": 91, "unit": "%"}, {"measurement": "viability, T/C", "setting": "[12]", "result": 102, "unit": "%"}, {"measurement": "viability, T/C", "setting": "second compound 0.316 µM, first compound 3.16 µM", "result": 99.5, "unit": "%"}, {"measurement": "viability, T/C", "setting": "second compound 0.316 µM, first compound 10 µM", "result": 87, "unit": "%"}, {"measurement": "viability, T/C", "setting": "[13]", "result": 92.7, "unit": "%"}, {"measurement": "viability, T/C", "setting": "[14]", "result": 86.6, "unit": "%"}, {"measurement": "viability, T/C", "setting": "[15]", "result": 88.2, "unit": "%"}, {"measurement": "viability, T/C", "setting": "[16]", "result": 96.9, "unit": "%"}, {"measurement": "viability, T/C", "setting": "second compound 1 µM, first compound 3.16 µM", "result": 96.1, "unit": "%"}, {"measurement": "viability, T/C", "setting": "second compound 1 µM, first compound 10 µM", "result": 87, "unit": "%"}, {"measurement": "viability, T/C", "setting": "[17]", "result": 83.9, "unit": "%"}, {"measurement": "viability, T/C", "setting": "[18]", "result": 84.5, "unit": "%"}, {"measurement": "viability, T/C", "setting": "[19]", "result": 88.8, "unit": "%"}, {"measurement": "viability, T/C", "setting": "[20]", "result": 92.3, "unit": "%"}, {"measurement": "viability, T/C", "setting": "second compound 3.16 µM, first compound 3.16 µM", "result": 85.8, "unit": "%"}, {"measurement": "viability, T/C", "setting": "second compound 3.16 µM, first compound 10 µM", "result": 84.1, "unit": "%"}, {"measurement": "viability, T/C", "setting": "[21]", "result": 78.2, "unit": "%"}, {"measurement": "viability, T/C", "setting": "[22]", "result": 76.9, "unit": "%"}, {"measurement": "viability, T/C", "setting": "[23]", "result": 81.1, "unit": "%"}, {"measurement": "viability, T/C", "setting": "[24]", "result": 97.5, "unit": "%"}, {"measurement": "viability, T/C", "setting": "second compound 10 µM, first compound 3.16 µM", "result": 75.8, "unit": "%"}, {"measurement": "viability, T/C", "setting": "second compound 10 µM, first compound 10 µM", "result": 68.3, "unit": "%"}]}, {"smiles": "CNC(C)C(=O)NC1CN(S(=O)(=O)c2cccc(S(=O)(=O)N3CCC4CCC(C(=O)NC(c5ccccc5)c5ccccc5)N4C(=O)C(NC(=O)C(C)NC)C3)c2)CCC2CCC(C(=O)NC(c3ccccc3)c3ccccc3)N2C1=O", "note": "(centres undefined) + Cc1c(S(C)(=O)=O)c(-c2cc(F)cc(N3CCN(c4ccc(NS(=O)(=O)c5ccc(NC(CCN6CCC(C(=O)OCCCP(=O)(O)O)CC6)CSc6ccccc6)c(S(=O)(=O)C(F)(F)F)c5)cc4)CC3)c2)c(-c2ccc(Cl)cc2)n1C(C)C", "values": [{"measurement": "IC50", "setting": "second compound 0.0316 µM", "result": "> 1", "unit": "µM"}, {"measurement": "IC50", "setting": "second compound 0.1 µM", "result": "> 1", "unit": "µM"}, {"measurement": "IC50", "setting": "second compound 0.316 µM", "result": "> 1", "unit": "µM"}, {"measurement": "IC50", "setting": "second compound 1 µM", "result": "> 1", "unit": "µM"}, {"measurement": "IC50", "setting": "second compound 3.16 µM", "result": "> 1", "unit": "µM"}, {"measurement": "IC50", "setting": "second compound 10 µM", "result": "> 1", "unit": "µM"}, {"measurement": "viability, T/C", "setting": "second compound 0.0316 µM, first compound 0.00316 µM", "result": 94.8, "unit": "%"}, {"measurement": "viability, T/C", "setting": "second compound 0.0316 µM, first compound 0.01 µM", "result": 97.2, "unit": "%"}, {"measurement": "viability, T/C", "setting": "[1]", "result": 95.6, "unit": "%"}, {"measurement": "viability, T/C", "setting": "[2]", "result": 93.3, "unit": "%"}, {"measurement": "viability, T/C", "setting": "[3]", "result": 98.4, "unit": "%"}, {"measurement": "viability, T/C", "setting": "[4]", "result": 103, "unit": "%"}, {"measurement": "viability, T/C", "setting": "second compound 0.1 µM, first compound 0.00316 µM", "result": 101, "unit": "%"}, {"measurement": "viability, T/C", "setting": "second compound 0.1 µM, first compound 0.01 µM", "result": 99.9, "unit": "%"}, {"measurement": "viability, T/C", "setting": "[5]", "result": 98.4, "unit": "%"}, {"measurement": "viability, T/C", "setting": "[6]", "result": 97.9, "unit": "%"}, {"measurement": "viability, T/C", "setting": "[7]", "result": 95.7, "unit": "%"}, {"measurement": "viability, T/C", "setting": "[8]", "result": 92.8, "unit": "%"}, {"measurement": "viability, T/C", "setting": "second compound 0.316 µM, first compound 0.00316 µM", "result": 96.4, "unit": "%"}, {"measurement": "viability, T/C", "setting": "second compound 0.316 µM, first compound 0.01 µM", "result": 91.8, "unit": "%"}, {"measurement": "viability, T/C", "setting": "[9]", "result": 89, "unit": "%"}, {"measurement": "viability, T/C", "setting": "[10]", "result": 99.3, "unit": "%"}, {"measurement": "viability, T/C", "setting": "[11]", "result": 96.6, "unit": "%"}, {"measurement": "viability, T/C", "setting": "[12]", "result": 85.8, "unit": "%"}, {"measurement": "viability, T/C", "setting": "second compound 1 µM, first compound 0.00316 µM", "result": 96.6, "unit": "%"}, {"measurement": "viability, T/C", "setting": "second compound 1 µM, first compound 0.01 µM", "result": 90.8, "unit": "%"}, {"measurement": "viability, T/C", "setting": "[13]", "result": 89.8, "unit": "%"}, {"measurement": "viability, T/C", "setting": "[14]", "result": 90.5, "unit": "%"}, {"measurement": "viability, T/C", "setting": "[15]", "result": 88.9, "unit": "%"}, {"measurement": "viability, T/C", "setting": "[16]", "result": 101, "unit": "%"}, {"measurement": "viability, T/C", "setting": "second compound 3.16 µM, first compound 0.00316 µM", "result": 98.5, "unit": "%"}, {"measurement": "viability, T/C", "setting": "second compound 3.16 µM, first compound 0.01 µM", "result": 88.1, "unit": "%"}, {"measurement": "viability, T/C", "setting": "[17]", "result": 84.5, "unit": "%"}, {"measurement": "viability, T/C", "setting": "[18]", "result": 85.5, "unit": "%"}, {"measurement": "viability, T/C", "setting": "[19]", "result": 89.9, "unit": "%"}, {"measurement": "viability, T/C", "setting": "[20]", "result": 82, "unit": "%"}, {"measurement": "viability, T/C", "setting": "second compound 10 µM, first compound 0.00316 µM", "result": 94.7, "unit": "%"}, {"measurement": "viability, T/C", "setting": "second compound 10 µM, first compound 0.01 µM", "result": 83.9, "unit": "%"}, {"measurement": "viability, T/C", "setting": "[21]", "result": 74.6, "unit": "%"}, {"measurement": "viability, T/C", "setting": "[22]", "result": 72.5, "unit": "%"}, {"measurement": "viability, T/C", "setting": "[23]", "result": 85.7, "unit": "%"}, {"measurement": "viability, T/C", "setting": "[24]", "result": 71.1, "unit": "%"}]}]}
